Assay results reported in PubChem BioAssay AID1259407 (Chemical Carcinogenesis Research Information System (CCRIS), 2018).
Calls of active or inactive are those of the source. The rule behind the calls is not given here.

System: CCRIS mutagenicity, Ames/micronucleus/aberration tests
Test: CCRIS mutagenicity studies
[1] = Test System: AMES SALMONELLA TYPHIMURIUM, Strain/Indicator: TA98, Metabolic Activation: NONE, Method: PREINCUBATION
[2] = Test System: AMES SALMONELLA TYPHIMURIUM, Strain/Indicator: TA100, Metabolic Activation: NONE, Method: PREINCUBATION
[3] = Test System: AMES SALMONELLA TYPHIMURIUM, Strain/Indicator: TA1535, Metabolic Activation: NONE, Method: PREINCUBATION

Question: What does the source list for `COc1c2occc2cc2ccc(=O)oc12`?
Answer: mutagenic call (Test System: AMES SALMONELLA TYPHIMURIUM, Strain/Indicator: TA92, Metabolic Activation: NONE, Method: SPOT TEST): inactive; negative; mutagenic call (Test System: AMES SALMONELLA TYPHIMURIUM, Strain/Indicator: TA92, Metabolic Activation: RAT, LIVER, S-9, AROCLOR 1254, Method: SPOT TEST): inactive; negative; mutagenic call (Test System: AMES SALMONELLA TYPHIMURIUM, Strain/Indicator: TA94, Metabolic Activation: NONE, Method: SPOT TEST): inactive; negative; mutagenic call (Test System: AMES SALMONELLA TYPHIMURIUM, Strain/Indicator: TA94, Metabolic Activation: RAT, LIVER, S-9, AROCLOR 1254, Method: SPOT TEST): inactive; negative; mutagenic call (Test System: AMES SALMONELLA TYPHIMURIUM, Strain/Indicator: TA97, Metabolic Activation: NONE, Method: SPOT TEST): inactive; negative; mutagenic call (Test System: AMES SALMONELLA TYPHIMURIUM, Strain/Indicator: TA97, Metabolic Activation: RAT, LIVER, S-9, AROCLOR 1254, Method: SPOT TEST): inactive; negative; mutagenic call (Test System: AMES SALMONELLA TYPHIMURIUM, Strain/Indicator: TA98, Metabolic Activation: HAMSTER, LIVER, S-9 (30%), AROCLOR 1254, Method: PREINCUBATION): inactive; negative; mutagenic call [1]: inactive; negative; mutagenic call (Test System: AMES SALMONELLA TYPHIMURIUM, Strain/Indicator: TA98, Metabolic Activation: NONE, Method: SPOT TEST): inactive; negative; mutagenic call (Test System: AMES SALMONELLA TYPHIMURIUM, Strain/Indicator: TA98, Metabolic Activation: NONE, Method: STANDARD PLATE): inactive; negative; mutagenic call (Test System: AMES SALMONELLA TYPHIMURIUM, Strain/Indicator: TA98, Metabolic Activation: RAT, LIVER, S-9, AROCLOR 1254, Method: SPOT TEST): inactive; negative; mutagenic call (Test System: AMES SALMONELLA TYPHIMURIUM, Strain/Indicator: TA98, Metabolic Activation: RAT, LIVER, S-9, PHENOBARBITAL, Method: STANDARD PLATE): inactive; negative; mutagenic call (Test System: AMES SALMONELLA TYPHIMURIUM, Strain/Indicator: TA100, Metabolic Activation: HAMSTER, LIVER, S-9 (5%, 10% OR 30%), AROCLOR 1254, Method: PREINCUBATION): active; positive; mutagenic call [2]: inactive; negative; mutagenic call (Test System: AMES SALMONELLA TYPHIMURIUM, Strain/Indicator: TA100, Metabolic Activation: NONE, Method: SPOT TEST): inactive; negative; mutagenic call (Test System: AMES SALMONELLA TYPHIMURIUM, Strain/Indicator: TA100, Metabolic Activation: RAT, LIVER, S-9 (10%), AROCLOR 1254, Method: PREINCUBATION): inactive; negative; mutagenic call (Test System: AMES SALMONELLA TYPHIMURIUM, Strain/Indicator: TA100, Metabolic Activation: RAT, LIVER, S-9, AROCLOR 1254, Method: SPOT TEST): inactive; negative; mutagenic call (Test System: AMES SALMONELLA TYPHIMURIUM, Strain/Indicator: TA102, Metabolic Activation: HAMSTER, LIVER, S-9 (5%), AROCLOR 1254, Method: PREINCUBATION): active; positive; mutagenic call (Test System: AMES SALMONELLA TYPHIMURIUM, Strain/Indicator: TA102, Metabolic Activation: NONE, Method: PREINCUBATION): inactive; negative; mutagenic call (Test System: AMES SALMONELLA TYPHIMURIUM, Strain/Indicator: TA102, Metabolic Activation: NONE, Method: SPOT TEST): inactive; negative; mutagenic call (Test System: AMES SALMONELLA TYPHIMURIUM, Strain/Indicator: TA102, Metabolic Activation: RAT, LIVER, S-9 (5%), AROCLOR 1254, Method: PREINCUBATION): active; positive; mutagenic call (Test System: AMES SALMONELLA TYPHIMURIUM, Strain/Indicator: TA102, Metabolic Activation: RAT, LIVER, S-9, AROCLOR 1254, Method: SPOT TEST): inactive; negative; mutagenic call (Test System: AMES SALMONELLA TYPHIMURIUM, Strain/Indicator: TA104, Metabolic Activation: HAMSTER, LIVER, S-9 (30%), AROCLOR 1254, Method: PREINCUBATION): active; positive; mutagenic call (Test System: AMES SALMONELLA TYPHIMURIUM, Strain/Indicator: TA104, Metabolic Activation: RAT, LIVER, S-9 (5% OR 10%), AROCLOR 1254, Method: PREINCUBATION): active; positive; mutagenic call (Test System: AMES SALMONELLA TYPHIMURIUM, Strain/Indicator: TA104, Metabolic Activation: RAT, LIVER, S-9(30%), AROCLOR 1254, Method: PREINCUBATION): active; positive; mutagenic call (Test System: AMES SALMONELLA TYPHIMURIUM, Strain/Indicator: TA1535, Metabolic Activation: HAMSTER, LIVER, S-9 (30%), AROCLOR 1254, Method: PREINCUBATION): inactive; negative; mutagenic call [3]: inactive; negative; mutagenic call (Test System: AMES SALMONELLA TYPHIMURIUM, Strain/Indicator: TA1535, Metabolic Activation: RAT, LIVER, S-9 (30%), AROCLOR 1254, Method: PREINCUBATION): inactive; negative

Question: Which mutagenic call (Test System: UDS RODENT HEPATOCYTES, Metabolic Activation: NONE) does the source give for `CN(N=O)C(CCC(=O)O)c1cccnc1` (stereo unspecified) here?
Answer: inactive; negative

Question: Which results are given for `CCCCN`?
Answer: mutagenic call (Test System: AMES SALMONELLA TYPHIMURIUM, Strain/Indicator: TA98, Metabolic Activation: HAMSTER, LIVER, S-9, AROCLOR 1254 (10%), Method: PREINCUBATION): inactive; negative; mutagenic call [1]: inactive; negative; mutagenic call (Test System: AMES SALMONELLA TYPHIMURIUM, Strain/Indicator: TA98, Metabolic Activation: RAT, LIVER, S-9, AROCLOR 1254 (10%), Method: PREINCUBATION): inactive; negative; mutagenic call (Test System: AMES SALMONELLA TYPHIMURIUM, Strain/Indicator: TA100, Metabolic Activation: HAMSTER, LIVER, S-9, AROCLOR 1254 (10%), Method: PREINCUBATION): inactive; negative; mutagenic call [2]: inactive; negative; mutagenic call (Test System: AMES SALMONELLA TYPHIMURIUM, Strain/Indicator: TA100, Metabolic Activation: RAT, LIVER, S-9, AROCLOR 1254 (10%), Method: PREINCUBATION): inactive; negative; mutagenic call (Test System: AMES SALMONELLA TYPHIMURIUM, Strain/Indicator: TA1535, Metabolic Activation: HAMSTER, LIVER, S-9, AROCLOR 1254 (10%), Method: PREINCUBATION): inactive; negative; mutagenic call [3]: inactive; negative; mutagenic call (Test System: AMES SALMONELLA TYPHIMURIUM, Strain/Indicator: TA1535, Metabolic Activation: RAT, LIVER, S-9, AROCLOR 1254 (10%), Method: PREINCUBATION): inactive; negative; mutagenic call (Test System: AMES SALMONELLA TYPHIMURIUM, Strain/Indicator: TA1537, Metabolic Activation: HAMSTER, LIVER, S-9, AROCLOR 1254 (10%), Method: PREINCUBATION): inactive; negative; mutagenic call (Test System: AMES SALMONELLA TYPHIMURIUM, Strain/Indicator: TA1537, Metabolic Activation: NONE, Method: PREINCUBATION): inactive; negative; mutagenic call (Test System: AMES SALMONELLA TYPHIMURIUM, Strain/Indicator: TA1537, Metabolic Activation: RAT, LIVER, S-9, AROCLOR 1254 (10%), Method: PREINCUBATION): inactive; negative

Question: How did the mutagenic call (Test System: CHINESE HAMSTER V-79, Strain/Indicator: V-79 (HPRT)/6-THIOGUANINE, Metabolic Activation: NONE, Method: STANDARD PLATE) turn out when `CCC(C)CO` (stereo unspecified) was run?
Answer: inactive; negative

Question: What about the mutagenic call (Test System: CHINESE HAMSTER V-79, Strain/Indicator: V-79 (HPRT)/6-THIOGUANINE, Metabolic Activation: RAT LIVER S-9, Method: STANDARD PLATE) of the same compound?
Answer: inactive; negative

Question: With `CC(=O)N(O[C@@H]1O[C@H](CO)[C@@H](O)[C@H](O)[C@H]1O)c1ccc(Oc2ccc(Cl)cc2)cc1` as the compound, how does the mutagenic call (Test System: AMES SALMONELLA TYPHIMURIUM, Strain/Indicator: TA100, Metabolic Activation: GUINEA PIG, LIVER, MICROSOMAL FRACTION, PCB) read?
Answer: active; positive

Question: What about the mutagenic call (Test System: AMES SALMONELLA TYPHIMURIUM, Strain/Indicator: TA100, Metabolic Activation: GUINEA PIG, LIVER, S-9, PCB) of the same compound?
Answer: active; positive

Question: What about the mutagenic call (Test System: AMES SALMONELLA TYPHIMURIUM, Strain/Indicator: TA100, Metabolic Activation: GUINEA PIG, LIVER, S-105, PCB) of the same compound?
Answer: inactive; negative
